Like-named read-outs stand apart in the source and are kept apart here.
Legend:
[1] = test system: HIV-BaL virus (R5 tropism); experiment: Protocol 4: inhibition of HIV-1 in U87.CD4.CCR5 cells, p24gag ELISA; type: cell-based; settings: Human immunodeficiency virus 1, 96 h, day 4 post-infection, read-out: percent inhibitory activity; for inhibition at 20 µM: 20 μM compound
Procedure: U87.CD4.CCR5 cell lines (5×10^4/well) were seeded in 24 well plates overnight. HIV-BaL virus (R5 tropism) was pretreated with a control solution of DMSO or a given compound dissolved in DMSO to a final concentration of 20-200 μM for 1 hr at 37° C.
Pretreated HIV-1 virus was then added (100 μl of 0.1 MOI) to pre-plated U87.CD4.CCR5 cells in 200 μl DMEM media and then incubated at 37° C. for an additional 1 hour with occasional mixing.
After 1 hour, the cells in each well were washed with 1 ml Ca^2+ Mg^2+ free PBS three times. After the last wash, 1 ml of DMEM was added to each well. On day 4 post-infection, 0.2 ml aliquots of culture supernatant was collected. Aliquots were stored at −80° C. until ready for p24gag ELISA. ELISA for p24gag was done using ELISA plates from Zeptometrix using a standard protocol.

[2] = test system: HIV-BaL virus (R5 tropism); experiment: Protocol 3: inhibition of HIV-1 in TZM-bl reporter cells, luciferase, R5 virus; type: cell-based; settings: Human immunodeficiency virus 1, BAL, read-out: percent inhibitory activity against R5; for inhibition at 200 µM: 200 μM compound
Procedure: (§1) HIV-BaL virus (R5 tropism) and HIV-1 IIIb virus (X4 tropism) were pretreated with a given compound dissolved in DMSO to a final concentration of 100-200 μM for 1 hr at 37° C. in 96 well tissue culture plates. The TZM-bl HIV reporter cell line (1×10^4/well) in 100 ul DMEM is then added to each well and the 96 well tissue culture plates are incubated at 37° C. in 5% CO2 incubator.
(§2) TZM-bl cells were obtained from the NIH AIDS Reagent Program (Germantown Md., USA). TZM-bl, previously designated JC53-bl (clone 13) is a HeLa cell line. The parental cell line (JC.53) stably expresses large amounts of CD4 and CCR5. The TZM-bl cell line was generated from JC.53 cells by introducing separate integrated copies of the luciferase and ß-galactosidase genes under control of the HIV-1 promoter. The TZM-bl cell line is highly sensitive to infection with diverse isolates of HIV-1. The TZM-bl indicator cell line enables simple and quantitative analysis of HIV using either ß-gal or luciferase as a reporter. It is maximally sensitive to HIV infection by including DEAE-dextran in the infection medium. […] Further information about TZM-bl cells can be found in U.S. Pat. No. 6,797,462, issued to Tranzyme Pharma.
(§3) After 48 hours, half of the medium was removed and replaced with commercially available reagents that contain lysing buffer and substrate for luciferase. After 2 minutes of lysis and incubation, the luciferase activity of the TZM-bl cell is read using a commercial luminometer. The readout is translated as relative light units (RLU).

[3] = test system: HIV-1 IIIb virus (X4 tropism); experiment: Protocol 3: inhibition of HIV-1 in TZM-bl reporter cells, luciferase, X4 virus; type: cell-based; settings: Human immunodeficiency virus 1, IIIB, read-out: percent inhibitory activity against X4; for inhibition at 200 µM: 200 μM compound
Procedure: as §1, §2, §3

[4] = test system: HIV-1 BaL virus (R5 tropism); experiment: Protocol 2: inhibition of HIV-1 in PBMC, virus pre-treated with compound, p24gag ELISA; type: cell-based; settings: Human immunodeficiency virus 1, 144 h, 100 μM compound, HIV-1 BaL (R5), day 6, read-out: percent inhibitory activity
Procedure: The protocol involves PBMCs which were purified by centrifugation at 500 g using Ficoll-Paque™ reagent. The cells were re-suspended in RPMI (10% FBS, 2 ug/ml PHA, 20 U/ml of IL-2) and incubated at 37° C. in 5% CO2 for 3 days.
HIV-1 BaL virus (R5 tropism) was pre-treated with a control solution of DMSO or a given compound dissolved in DMSO to a final concentration of 20-100 μM for 1 hour at 37° C. Pretreated HIV-1 viruses were then added (100 μl of 0.1 MOI) to 5×10^5 PBMCs in 100 μl RPMI media and then incubated at 37° C. for an additional 1 hour with occasional mixing. After 1 hour, the cells were centrifuged at 1000 rpm for 5 minutes and the cell pellet washed wash thrice with 2 ml Ca^2+ Mg^2+ free PBS.
After the last wash, the cells are re-suspended in medium and transferred to 12-well tissue culture plates and place at 37° C.
On day 6 of culture, 0.5 ml aliquots of culture supernatant were collected. Aliquots were stored at −80° C. until ready for p24gag ELISA. ELISA for p24gag was done using ELISA plates from Zeptometrix using a standard protocol.

JR-FL-R5 virus = experiment: Example 6: U87.CD4.CCR5 cells infected with replication-deficient luciferase HIV strain; type: cell-based; settings: Human immunodeficiency virus 1, U87/CD4/CCR5, 48 h, read-out: % HIV inhibitory activity
Procedure: Methods. U87.CD4.CCR5 cells (2.5×10^4/well) were seeded overnight and then infected with a replication-deficient HIV strain containing a luciferase insertion in the nef gene (JR-FL-R5 virus). JR-FL-R5 virus was pre-incubated with each compound for 1 hour prior to infection. After two days, the cells were washed, lysed and measured for luciferase activity, which is indicative of viral integration and/or transcription. Compounds were tested in quadruplicates.

[5] = test system: HIV-1IIIB virus (X4 tropism); experiment: Protocol 1: inhibition of HIV-1 in Jurkat T-cells, p24gag ELISA; type: cell-based; settings: read-out: percent inhibitory activity
Procedure: HIV-1IIIB virus (X4 tropism) was pretreated with a control solution of DMSO or a given compound dissolved in DMSO to a final concentration of 100 μM for 1 hr at 37° C. Pretreated HIV-1 virus was then added (100 μl of 0.1 MOI) to 0.5×10^6 Jurkat (JKT C) T-cells in 100 μl RPMI media and incubated at 37° C. for an additional 1 hr with occasional mixing.
After 1 hour, the cells were centrifuged at 1000 rpm for 5 minutes and the cell pellet washed wash thrice with 2 ml Ca^2+ Mg^2+ free PBS. After the last wash, the cells were resuspended in medium and transferred to 12-well tissue culture plates and placed at 37° C.
On days 2 and 5 of culture, 0.5 ml aliquots of culture supernatant is collected and replaced with 0.5 ml of fresh medium. Aliquots are stored at −80° C. until ready for p24gag ELISA. ELISA for p24gag was done using ELISA plates from Zeptometrix using a standard protocol.

[6] = test system: HIV-1IIIB virus (X4 tropism); experiment: as above; type: cell-based; settings: Human immunodeficiency virus 1, 20 μM compound, HIV-1IIIB (X4), read-out: percent inhibitory activity
HIV BaL = experiment: Example 5: HIV inhibition in human PBMC infected first, then treated with compound; type: cell-based, HIV-1; settings: read-out: % HIV inhibitory activity
Procedure: In this Example, Compounds #32 and #38 were tested using human peripheral blood mononuclear cells (PBMC). The protocol used is the same as that of Example 2—Protocol 2, delineated in detail, above.
Methods. Briefly, 5×10^5 activated PBMCs were used per well in a 12-well tissue culture plate. The PBMCs were infected with HIV BaL for 1 hour and washed 2× with RPMI medium. The PBMCs were then mixed with compound #32 or #38 at concentrations of 6.0 μM, 25 μM or 100 μM, with solutions containing 20U/m1 of IL-2.
At day 3-post infection, 500 μl of fresh medium containing appropriate concentration of compounds were added. The supernatants were harvested at day 8. The level of HIV infection was determined as described in protocol 2.

[7] = 100 μM compound, TZM-bl cells, 48 hours
[8] = Human immunodeficiency virus 1, 100 μM compound, HIV-1IIIB (X4), Jurkat T-cells
[9] = Human immunodeficiency virus 1, Jurkat
[10] = Human immunodeficiency virus 1, BAL, PBMC, 192 h

## O=C(CSc1nnc(O)nc1O)N/N=C/c1ccc(-c2nn[nH]n2)cn1 [#44]
[1]
  inhibition at 20 µM: 10%

## O=C(CSc1nnc(O)nc1O)N/N=C/c1ccc(C(=O)O)cn1 [#42]
[2]; [7]
  inhibition at 100 µM: 25%
[3]; [7]
  inhibition at 100 µM: 25%

## Nc1cc(=O)[nH]c(SCC(=O)Nc2ccc3c(c2)OCO3)n1 [#21]
[4]
  inhibition at 100 µM: 40%

## CCOC(=O)c1ccc(/C=N/NC(=O)CSc2nnc(O)nc2O)nc1 [#43]
[2]; [7]
  inhibition at 100 µM: 12%
[3]; [7]
  inhibition at 100 µM: 16%

## O=C(CC1CCS(=O)(=O)C1)N/N=C/C=C/c1ccccc1 (centres unmarked) [#49]
JR-FL-R5 virus
  inhibition at 0.05 µM: 45%

## O=C(Cn1c(-c2ccccn2)nc2ccccc21)N/N=C/C=C/c1ccccc1 [#51]
JR-FL-R5 virus
  inhibition at 0.05 µM: 22%

## CCOC(=O)c1cnc(SCC(=O)Nc2cccc(C(=O)O)c2)nc1N [#1]
[5]; [8]
  inhibition at 100 µM: 3%

## Nc1cc(=O)[nH]c(SCC(=O)Nc2ccc([N+](=O)[O-])cc2)n1 [#27]
[5]; [9]
  inhibition at 100 µM: 20%

## Nc1cc(=O)[nH]c(SCCC(=O)NCc2ccc(C(=O)O)cc2)n1 [#36]
[6]
  inhibition at 20 µM: 50%
[1]
  inhibition at 20 µM: 7%

## O=C(CSc1nnc(O)nc1O)N/N=C/c1cccnc1 [#40]
[2]; [7]
  inhibition at 100 µM: 71%
[3]; [7]
  inhibition at 100 µM: 57%

## O=C(CSc1nnc(O)nc1O)N/N=C/c1ccc(O)c([N+](=O)[O-])c1 [#41]
[2]; [7]
  inhibition at 100 µM: 14%
[3]; [7]
  inhibition at 100 µM: 10%

## Nc1cc(=O)[nH]c(SCC(=O)Nc2ccc(F)c(Cl)c2)n1 [#25]
[5]; [9]
  inhibition at 100 µM: 18%

## Nc1cc(=O)[nH]c(SCC(=O)Nc2cnc(C(=O)O)cn2)n1 [#30]
[1]
  inhibition at 20 µM: 19%

## Nc1cc(=O)[nH]c(SCC(=O)Nc2ccc(C(=O)O)cc2)n1 [#2]
[4]
  inhibition at 100 µM: 30%
[5]; [8]
  inhibition at 100 µM: 88%

## O=C(CSc1nnc(O)nc1O)N/N=C/C=C/c1ccccc1 [#38]
[2]; TZM-bl, 48 h
  inhibition at 100 µM: 73%
JR-FL-R5 virus
  inhibition at 2 µM: 30%
[3]; TZM-bl, 48 h
  inhibition at 100 µM: 69%
[5]; [9]
  inhibition at 100 µM: 44%
HIV BaL; [10]
  inhibition at 6 µM: 70%
  inhibition at 25 µM: 90%
  inhibition at 100 µM: 100%

## COC(=O)c1ccc(NC(=O)CCSc2nc(N)cc(=O)[nH]2)cc1 [#35]
[1]
  inhibition at 20 µM: 27%

## CCOC(=O)Cc1ccc(NC(=O)CSc2nc(N)cc(=O)[nH]2)cc1 [#33]
[1]
  inhibition at 20 µM: 27%

## COC(=O)c1cnc(NC(=O)CSc2nc(N)cc(=O)[nH]2)cn1 [#31]
[1]
  inhibition at 20 µM: 21%

## CCOC(=O)c1ccc(NC(=O)CSc2nc(N)cc(=O)[nH]2)nc1 [#29]
[6]
  inhibition at 20 µM: 75%
[1]
  inhibition at 20 µM: 24%

## Nc1cc(=O)[nH]c(SCCC(=O)Nc2ccc(C(=O)O)cc2)n1 [#34]
[2]; TZM-bl cells, 48 hours
  inhibition at 200 µM: 61%
[1]
  inhibition at 20 µM: 33%
[3]; TZM-bl cells, 48 hours
  inhibition at 200 µM: 62%

## O=C(CSc1nnc(O)nc1O)N/N=C/c1ccc(C(=O)O)cc1 [#3]
[4]
  inhibition at 100 µM: 34%
[5]; [8]
  inhibition at 100 µM: 71%

## O=C(CSc1nnc(O)nc1O)N/N=C/c1ccccn1 [#37]
[1]; 200 μM compound
  inhibition at 200 µM: 28%
[5]; [8]
  inhibition at 100 µM: 45%

## Nc1cc(=O)[nH]c(SCC(=O)Nc2ccc(C(=O)O)cn2)n1 [#28]
[1]
  inhibition at 20 µM: 27%

## O=C(CSc1nnc(O)nc1O)N/N=C/c1ccc(-c2nccs2)cn1 [#47]
[2]; [7]
  inhibition at 100 µM: 27%
[3]; [7]
  inhibition at 100 µM: 29%

## O=C(CSc1nnc(O)nc1O)N/N=C/c1ccc(Br)cc1 [#39]
[2]; [7]
  inhibition at 100 µM: 15%
[3]; [7]
  inhibition at 100 µM: 15%
[5]; [8]
  inhibition at 100 µM: 32%

## O=C(Cc1nnc(O)nc1O)N/N=C/C=C/c1ccccc1 [#48]
JR-FL-R5 virus
  inhibition at 0.05 µM: 28%

## Nc1cc(=O)[nH]c(SCC(=O)Nc2ccc(CC(=O)O)cc2)n1 [#32]
[2]; TZM-bl cells, 48 hours
  inhibition at 200 µM: 94%
[6]
  inhibition at 20 µM: 80%
JR-FL-R5 virus
  inhibition at 2 µM: 32%
[3]; TZM-bl cells, 48 hours
  inhibition at 200 µM: 61%
HIV BaL; Human immunodeficiency virus 1, 192 h, 6.0 μM compound, human PBMC, HIV BaL, day 8
  inhibition at 6 µM: 54%
HIV BaL; Human immunodeficiency virus 1, 192 h, 25 μM compound, human PBMC, HIV BaL, day 8
  inhibition at 25 µM: 65%
HIV BaL; Human immunodeficiency virus 1, 192 h, 100 μM compound, human PBMC, HIV BaL, day 8
  inhibition at 100 µM: 82%

Reference: US20180179166A1, “SMALL MOLECULE INHIBITORS OF GP120-MEDIATED HIV INFECTION AND METHODS OF USE” (ViroCarb Inc., priority 2014, published 2018)
